Molecular target: Gal-3 (Homo sapiens, UniProt P17931)
Assay: biolayer interferometry, steady-state analysis
Assay type: binding

Chain of Gal-3 (P17931 2-250): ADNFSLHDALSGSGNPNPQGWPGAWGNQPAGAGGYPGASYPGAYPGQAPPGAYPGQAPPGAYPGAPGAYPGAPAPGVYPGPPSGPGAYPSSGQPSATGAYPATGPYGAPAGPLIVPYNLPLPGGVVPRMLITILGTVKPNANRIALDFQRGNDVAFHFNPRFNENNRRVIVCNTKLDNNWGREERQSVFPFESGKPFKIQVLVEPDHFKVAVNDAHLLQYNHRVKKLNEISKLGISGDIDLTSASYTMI

Row | Structure (SMILES) | Kd [µM]
1 | OC[C@H]1O[C@H](Oc2ccc(N=Nc3c(O)c(N=Nc4ccc(O[C@H]5O[C@H](CO)[C@H](O)[C@H](O)[C@H]5O)cc4)c(O)c(N=Nc4ccc(O[C@H]5O[C@H](CO)[C@H](O)[C@H](O)[C@H]5O)cc4)c3O)cc2)[C@H](O)[C@@H](O)[C@H]1O [αGalY] | 3.31
2 | OC[C@H]1O[C@@H](Oc2ccc(N=Nc3c(O)c(N=Nc4ccc(O[C@@H]5O[C@H](CO)[C@H](O)[C@H](O)[C@H]5O)cc4)c(O)c(N=Nc4ccc(O[C@@H]5O[C@H](CO)[C@H](O)[C@H](O)[C@H]5O)cc4)c3O)cc2)[C@H](O)[C@@H](O)[C@H]1O [βGalY] | 9.14 ± 3.42
3 | OC[C@H]1O[C@@H](O[C@H]2[C@H](O)[C@@H](O)[C@H](Oc3ccc(N=Nc4c(O)c(N=Nc5ccc(O[C@@H]6O[C@H](CO)[C@@H](O[C@@H]7O[C@H](CO)[C@H](O)[C@H](O)[C@H]7O)[C@H](O)[C@H]6O)cc5)c(O)c(N=Nc5ccc(O[C@@H]6O[C@H](CO)[C@@H](O[C@@H]7O[C@H](CO)[C@H](O)[C@H](O)[C@H]7O)[C@H](O)[C@H]6O)cc5)c4O)cc3)O[C@@H]2CO)[C@H](O)[C@@H](O)[C@H]1O [βLacY] | 3.46 ± 1.75

— publication doi:10.1101/2025.01.14.632949v1 (biorxiv, 2025)
